Reference: publication PMC10861534, “Poly-γ-glutamylation of biomolecules” (Nature Communications, 2024)

What was measured:
hFPGS = target: T1, hFPGS (Homo sapiens, UniProt Q05932); assay: LC-MS of reaction products; assay type: biochemical; conditions: 5 mM analogue, 0.5 mM folate, 5 mM ATP, 10 mM MgCl2, pH 8.5, 37 °C; chain terminator
T1 construct: gene FPGS; ORF in pFastBacHTa, N-terminal His6-tag, Sf9 insect cells
T1 sequence (Q05932 43-587): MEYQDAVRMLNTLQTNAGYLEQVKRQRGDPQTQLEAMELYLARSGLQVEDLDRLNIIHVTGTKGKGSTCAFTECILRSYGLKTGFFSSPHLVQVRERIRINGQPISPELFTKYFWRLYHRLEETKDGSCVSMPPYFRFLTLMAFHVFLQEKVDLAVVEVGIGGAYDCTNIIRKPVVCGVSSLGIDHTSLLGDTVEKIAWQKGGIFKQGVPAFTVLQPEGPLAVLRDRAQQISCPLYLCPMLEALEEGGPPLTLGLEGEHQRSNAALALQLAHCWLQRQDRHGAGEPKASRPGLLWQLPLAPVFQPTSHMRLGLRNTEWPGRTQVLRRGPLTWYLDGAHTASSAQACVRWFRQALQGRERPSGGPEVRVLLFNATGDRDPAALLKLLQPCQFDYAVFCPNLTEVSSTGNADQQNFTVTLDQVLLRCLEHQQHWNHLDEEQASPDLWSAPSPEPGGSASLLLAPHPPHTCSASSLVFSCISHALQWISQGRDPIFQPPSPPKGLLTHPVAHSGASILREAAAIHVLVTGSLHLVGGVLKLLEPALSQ

Mtb-FbiB = Mtb-FbiB (Mycobacterium tuberculosis, UniProt P9WP79)
Sequence of Mtb-FbiB (P9WP79 whole entry): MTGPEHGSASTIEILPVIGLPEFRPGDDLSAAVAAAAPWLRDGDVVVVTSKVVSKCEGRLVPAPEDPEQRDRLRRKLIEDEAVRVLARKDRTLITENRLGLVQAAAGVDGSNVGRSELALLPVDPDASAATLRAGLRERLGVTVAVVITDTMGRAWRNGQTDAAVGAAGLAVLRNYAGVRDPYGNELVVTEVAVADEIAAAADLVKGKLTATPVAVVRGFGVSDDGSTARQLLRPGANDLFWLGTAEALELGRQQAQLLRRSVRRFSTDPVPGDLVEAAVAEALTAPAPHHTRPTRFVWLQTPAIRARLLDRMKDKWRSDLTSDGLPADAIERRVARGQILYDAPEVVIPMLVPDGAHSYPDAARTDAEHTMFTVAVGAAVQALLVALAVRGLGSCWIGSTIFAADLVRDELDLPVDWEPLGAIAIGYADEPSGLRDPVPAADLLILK

Af-CofE = target: T2, Af-CofE (Archaeoglobus fulgidus, UniProt O28028); assay: LC-MS of reaction products; assay type: biochemical; conditions: 2 mM analogue, 50 uM F420-1, 2 mM GTP, 2 mM MgCl2/MnCl2, pH 8.5, 37 °C; chain terminator
T2 construct: codon-optimized ORF in pProEX-HTb, E. coli BL21(DE3) LOBSTR; N-terminal His6-tag removed by rTEV; co-purified flavins washed off with urea/KBr; homodimer
T2 sequence (O28028 whole entry): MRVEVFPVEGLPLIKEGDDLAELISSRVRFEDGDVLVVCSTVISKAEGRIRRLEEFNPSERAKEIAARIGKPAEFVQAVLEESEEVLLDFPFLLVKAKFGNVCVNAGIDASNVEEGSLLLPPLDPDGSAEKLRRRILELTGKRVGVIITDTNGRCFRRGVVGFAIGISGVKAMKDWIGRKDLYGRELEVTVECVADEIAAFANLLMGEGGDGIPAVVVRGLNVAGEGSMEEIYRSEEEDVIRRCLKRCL

Mtb-FPGS = target: T3, Mtb-FPGS (Mycobacterium tuberculosis, UniProt I6Y0R5)
T3 construct: gene folC
T3 sequence (I6Y0R5 whole entry): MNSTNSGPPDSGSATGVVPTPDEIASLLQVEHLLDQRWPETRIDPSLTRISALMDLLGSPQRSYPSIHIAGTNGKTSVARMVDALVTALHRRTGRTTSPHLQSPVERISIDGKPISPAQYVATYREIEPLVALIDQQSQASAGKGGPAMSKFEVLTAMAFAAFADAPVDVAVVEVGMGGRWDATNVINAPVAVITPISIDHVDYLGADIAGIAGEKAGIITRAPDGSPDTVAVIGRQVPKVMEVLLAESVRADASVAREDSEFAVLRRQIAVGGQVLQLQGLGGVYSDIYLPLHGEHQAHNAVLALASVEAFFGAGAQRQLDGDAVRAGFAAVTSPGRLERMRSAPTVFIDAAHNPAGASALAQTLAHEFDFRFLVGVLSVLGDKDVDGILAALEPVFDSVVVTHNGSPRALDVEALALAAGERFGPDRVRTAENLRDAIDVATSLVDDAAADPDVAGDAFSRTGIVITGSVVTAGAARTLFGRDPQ

Tm-DHFR = target: T4, Tm-DHFR (Thermotoga maritima, UniProt Q60034); assay: 1H NMR of reaction; assay type: biochemical; conditions: 1 mM folate-2, 2 mM NADPH, pH 7.0, 37 °C; reduced to tetrahydrofolate-2
T4 construct: gene folA; synthesized ORF in pProEX-HTb, E. coli BL21(DE3) LOBSTR; TALON and SEC
T4 sequence (Q60034 1-169): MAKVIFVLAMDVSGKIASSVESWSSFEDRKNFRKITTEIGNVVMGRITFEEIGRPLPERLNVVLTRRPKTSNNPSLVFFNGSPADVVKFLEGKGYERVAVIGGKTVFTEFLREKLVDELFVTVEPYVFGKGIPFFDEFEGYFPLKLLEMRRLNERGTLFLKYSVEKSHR

Structure (SMILES) | LC-MS of reaction products (hFPGS) | LC-MS of reaction products (Mtb-FbiB) | LC-MS of reaction products (Af-CofE) | LC-MS of reaction products (Mtb-FPGS) | 1H NMR of reaction (Tm-DHFR)
N[C@@H](CC[N+](=O)[O-])C(=O)O [4-nitro-L-2-aminobutyric acid, (2S)-2-Amino-4-nitrobutanoic acid] | acts as a substrate across all enzymes and both cofactors | acts as a substrate across all enzymes and both cofactors | acts as a substrate across all enzymes and both cofactors | acts as a substrate across all enzymes and both cofactors | –
Nc1nc2ncc(CNc3ccc(C(=O)N[C@@H](CCC(=O)N[C@@H](CCC(=O)O)C(=O)O)C(=O)O)cc3)nc2c(=O)[nH]1 [folate-2, pteroyldi-γ-L-glutamic acid] | – | – | – | addition of only a single L-glutamate molecule to afford folate-3 as the major product | pre-incubation with Tm-DHFR initiated the production of tetrahydrofolate-2
